Test results published in patent US6440401B1, “2-phenyl-benzimidazolesulfonic acids as UV-B filters” (Merck Patent Gesellschaft Mit Beschraenkter Haftung, priority 2000, dated 2002).

Experiment: UV absorption maximum
Format: physicochemical
Description: 108 parts of o-phenylenediamine are introduced into 500 parts of H2SO4 (>96%) and then 800 parts of oleum (65%) are added dropwise, the temperature being maintained at a maximum of 120° C. After 15 min, the mixture is cooled to 70° C. and 120 parts of benzoic acid are added. The mixture is heated for 2 h at 180° C. The mixture is slowly hydrolysed with 2 500 parts of water, the temperature being maintained below 10° C. The precipitate (crystals) is filtered off with suction, the crude product is suspended in 8 parts of water and dissolved with 32% sodium hydroxide solution at pH=7. The solution is stirred with activated carbon until colorless, and thereafter precipitation is induced using 96% H2SO4 by establishing a pH=1-2. 300 parts of 2-phenylbenzimidazole-4,6-disulfonic acid are obtained. The compound has an absorption maximum in the UV-B region at λmax=308 nm.

- absorption maximum in the UV-B region, λmax: 308 nm
SMILES: O=S(=O)(O)c1cc(S(=O)(=O)O)c2[nH]c(-c3ccccc3)nc2c1 [2-phenylbenzimidazole-4,6-disulfonic acid]
